Laboratory results reported in patent US10918610B2, “Compounds and methods of promoting myelination” (Case Western Reserve University, priority 2017, dated 2021).

Tested on: human cortical spheroids
Test: MYRF+ oligodendrocytes in human cortical spheroids
Format: cell-based
Settings: 30 nM from days 61-71, assayed on day 94, versus untreated
Experimental: Human cortical spheroids were generated as described in Madhavan et al, (Nature Methods, 15:700-706, 2018). In brief, spheroids were left untreated, or treated with Cis-N-cyclohexyl-N-ethyl-3-(3-chloro-4-cyclohexylphenyl)prop-2-enylamine (30 nM) from days 61-71 and assayed […] on day 94 for MyRF+ oligodendrocytes (Rabbit anti-MyRF antibody was generously provided by M. Wegner and used at 1:1000).
For patterning of neurocortical spheroids, pluripotent stem cell colonies cultured on vitronectin (Gibco; A14700) were lifted with dispase (Gibco; 17105-041) at 37° C. for 10 min. Intact colonies were transferred to individual low-adherence V-bottom 96-well plates (S-Bio Prime; MS-9096VZ) in 200 μl of spheroid starter media with 10 μM ROCK inhibitor Y-27632 (Calbiochem; 688001), 10 μM dorsopmorphin (Sigma; P5499), and 10 μM SB-431542 (Sigma; S4317). […]
Spheroids for immunohistochemistry were initially fixed with 4% ice-cold paraformaldehyde for 45 min, washed three times in PBS, and equilibrated with 30% sucrose overnight. […] Two fields from the top and bottom of the spheroid and two fields from the edges of the central region of the spheroids were quantified. […]

Compound: CCN(C/C=C\c1ccc(C2CCCCC2)c(Cl)c1)C1CCCCC1 [Cis-N-cyclohexyl-N-ethyl-3-(3-chloro-4-cyclohexylphenyl)prop-2-enylamine]
- MYRF+ oligodendrocytes in human cortical spheroids: selectively increase MYRF+ oligodendrocytes
